pIC50: −log10 of the molar value. The source made the active and inactive calls. No cut-off for these calls is given here.
What follows are compounds tested on IMR-32 (assay: Neurotrophic activity in human IMR32 cells assessed as induction of differentiation at 50 uM after 96 hrs by bright filed microscopic method). Conditions: not given.
Type: functional, cell-based

| SMILES | Activity |
| --- | --- |
| COC(=O)C[C@@H]1[C@H](C(=O)OC)c2ccccc2N(C(C)=O)[C@@H]1c1ccccc1 | Active |

These compounds were tested on A549 (assay: Antiproliferative activity against human A549 cells). Conditions: not given.
Type: functional, cell-based

| SMILES | Activity |
| --- | --- |
| O[C@@H]1[C@@H]2c3ccccc3N[C@H](c3cccc(Br)c3)[C@@H]2C[C@@H]1O | inactive |
| C1=C[C@@H]2c3ccccc3N[C@H](c3ccccc3)[C@@H]2C1 | inactive |
| COC(=O)C[C@@H]1[C@H](C(=O)OC)c2ccccc2N(C(C)=O)[C@@H]1c1ccccc1 | inactive |
| CC(=O)N1c2ccccc2[C@@H]2[C@@H](C[C@@H]3O[C@H]23)[C@H]1c1ccccc1 | inactive |

Each compound was assayed on IMR-32 (assay: Cytotoxicity against human IMR32 cells after 48 hrs by SRB assay). Conditions: IMR-32, 48 h.
Type: cell-based

| SMILES | pIC50 |
| --- | --- |
| O[C@@H]1[C@@H]2c3ccccc3N[C@H](c3cccc(Br)c3)[C@@H]2C[C@@H]1O | < 4.00 |
| C1=C[C@@H]2c3ccccc3N[C@H](c3ccccc3)[C@@H]2C1 | < 4.00 |
| COC(=O)C[C@@H]1[C@H](C(=O)OC)c2ccccc2N(C(C)=O)[C@@H]1c1ccccc1 | 4.09 |
| CC(=O)N1c2ccccc2[C@@H]2[C@@H](C[C@@H]3O[C@H]23)[C@H]1c1ccccc1 | < 4.00 |

These compounds were tested on MCF7 (assay: Antiproliferative activity against human MCF7 cells). Conditions: not given.
Type: functional, cell-based

| SMILES | Activity |
| --- | --- |
| O[C@@H]1[C@@H]2c3ccccc3N[C@H](c3cccc(Br)c3)[C@@H]2C[C@@H]1O | inactive |
| C1=C[C@@H]2c3ccccc3N[C@H](c3ccccc3)[C@@H]2C1 | inactive |
| COC(=O)C[C@@H]1[C@H](C(=O)OC)c2ccccc2N(C(C)=O)[C@@H]1c1ccccc1 | inactive |
| CC(=O)N1c2ccccc2[C@@H]2[C@@H](C[C@@H]3O[C@H]23)[C@H]1c1ccccc1 | inactive |

Each compound was assayed on IMR-32 (assay: Neurotrophic activity in human IMR32 cells assessed as increase in NGF mRNA level at 10 uM by RT-PCR analysis). Conditions: not given.
Type: functional, cell-based

| SMILES | Activity |
| --- | --- |
| O[C@@H]1[C@@H]2c3ccccc3N[C@H](c3cccc(Br)c3)[C@@H]2C[C@@H]1O | Active |
| C1=C[C@@H]2c3ccccc3N[C@H](c3ccccc3)[C@@H]2C1 | Active |
| COC(=O)C[C@@H]1[C@H](C(=O)OC)c2ccccc2N(C(C)=O)[C@@H]1c1ccccc1 | Active |
| CC(=O)N1c2ccccc2[C@@H]2[C@@H](C[C@@H]3O[C@H]23)[C@H]1c1ccccc1 | Active |

What follows are compounds tested on IMR-32 (assay: Neurotrophic activity in human IMR32 cells assessed as increase in NGF protein level at 10 uM by Western blot method). Conditions: not given.
Type: functional, cell-based

| SMILES | Activity |
| --- | --- |
| O[C@@H]1[C@@H]2c3ccccc3N[C@H](c3cccc(Br)c3)[C@@H]2C[C@@H]1O | Active |
| C1=C[C@@H]2c3ccccc3N[C@H](c3ccccc3)[C@@H]2C1 | Active |
| COC(=O)C[C@@H]1[C@H](C(=O)OC)c2ccccc2N(C(C)=O)[C@@H]1c1ccccc1 | Active |
| CC(=O)N1c2ccccc2[C@@H]2[C@@H](C[C@@H]3O[C@H]23)[C@H]1c1ccccc1 | Active |

What follows are compounds tested on IMR-32 (assay: Neurotrophic activity in human IMR32 cells assessed as appearance of neurites at 1 to 10 uM after 96 hrs by bright field microscopic analysis). Conditions: not given.
Type: functional, cell-based

| SMILES | Activity |
| --- | --- |
| O[C@@H]1[C@@H]2c3ccccc3N[C@H](c3cccc(Br)c3)[C@@H]2C[C@@H]1O | Active |

The compounds below were run on IMR-32 (assay: Neurotrophic activity in human IMR32 cells assessed as induction of differentiation at 10 uM after 96 hrs by bright filed microscopic method). Conditions: not given.
Type: functional, cell-based

| SMILES | Activity |
| --- | --- |
| O[C@@H]1[C@@H]2c3ccccc3N[C@H](c3cccc(Br)c3)[C@@H]2C[C@@H]1O | Active |
| C1=C[C@@H]2c3ccccc3N[C@H](c3ccccc3)[C@@H]2C1 | Active |
| COC(=O)C[C@@H]1[C@H](C(=O)OC)c2ccccc2N(C(C)=O)[C@@H]1c1ccccc1 | Active |
| CC(=O)N1c2ccccc2[C@@H]2[C@@H](C[C@@H]3O[C@H]23)[C@H]1c1ccccc1 | Active |

What follows are compounds tested on IMR-32 (assay: Neurotrophic activity in human IMR32 cells assessed as induction of differentiation at 1 uM after 96 hrs by bright filed microscopic method). Conditions: not given.
Type: functional, cell-based

| SMILES | Activity |
| --- | --- |
| C1=C[C@@H]2c3ccccc3N[C@H](c3ccccc3)[C@@H]2C1 | Active |

The compounds below were run on DU-145 (assay: Antiproliferative activity against human DU145 cells). Conditions: not given.
Type: functional, cell-based

| SMILES | Activity |
| --- | --- |
| O[C@@H]1[C@@H]2c3ccccc3N[C@H](c3cccc(Br)c3)[C@@H]2C[C@@H]1O | inactive |
| C1=C[C@@H]2c3ccccc3N[C@H](c3ccccc3)[C@@H]2C1 | inactive |
| COC(=O)C[C@@H]1[C@H](C(=O)OC)c2ccccc2N(C(C)=O)[C@@H]1c1ccccc1 | inactive |
| CC(=O)N1c2ccccc2[C@@H]2[C@@H](C[C@@H]3O[C@H]23)[C@H]1c1ccccc1 | inactive |

Each compound was assayed on HepG2 (assay: Antiproliferative activity against human HepG2 cells). Conditions: not given.
Type: functional, cell-based

| SMILES | Activity |
| --- | --- |
| O[C@@H]1[C@@H]2c3ccccc3N[C@H](c3cccc(Br)c3)[C@@H]2C[C@@H]1O | inactive |
| C1=C[C@@H]2c3ccccc3N[C@H](c3ccccc3)[C@@H]2C1 | inactive |
| COC(=O)C[C@@H]1[C@H](C(=O)OC)c2ccccc2N(C(C)=O)[C@@H]1c1ccccc1 | inactive |
| CC(=O)N1c2ccccc2[C@@H]2[C@@H](C[C@@H]3O[C@H]23)[C@H]1c1ccccc1 | inactive |

The compounds below were run on IMR-32 (assay: Neurotrophic activity in human IMR32 cells assessed as increase in BDNF mRNA level at 10 uM by RT-PCR analysis). Conditions: not given.
Type: functional, cell-based

| SMILES | Activity |
| --- | --- |
| O[C@@H]1[C@@H]2c3ccccc3N[C@H](c3cccc(Br)c3)[C@@H]2C[C@@H]1O | Active |
| C1=C[C@@H]2c3ccccc3N[C@H](c3ccccc3)[C@@H]2C1 | Active |
| COC(=O)C[C@@H]1[C@H](C(=O)OC)c2ccccc2N(C(C)=O)[C@@H]1c1ccccc1 | Active |
| CC(=O)N1c2ccccc2[C@@H]2[C@@H](C[C@@H]3O[C@H]23)[C@H]1c1ccccc1 | Active |

What follows are compounds tested on IMR-32 (assay: Neurotrophic activity in human IMR32 cells assessed as increase in BDNF protein level at 10 uM by Western blot method). Conditions: not given.
Type: functional, cell-based

| SMILES | Activity |
| --- | --- |
| O[C@@H]1[C@@H]2c3ccccc3N[C@H](c3cccc(Br)c3)[C@@H]2C[C@@H]1O | Active |
| C1=C[C@@H]2c3ccccc3N[C@H](c3ccccc3)[C@@H]2C1 | Active |
| COC(=O)C[C@@H]1[C@H](C(=O)OC)c2ccccc2N(C(C)=O)[C@@H]1c1ccccc1 | Active |
| CC(=O)N1c2ccccc2[C@@H]2[C@@H](C[C@@H]3O[C@H]23)[C@H]1c1ccccc1 | Active |

What follows are compounds tested on IMR-32 (assay: Neurotrophic activity in human IMR32 cells assessed as length of neurite outgrown after 96 hrs by bright field microscopic analysis). Conditions: not given.
Type: functional, cell-based

| SMILES | Activity |
| --- | --- |
| O[C@@H]1[C@@H]2c3ccccc3N[C@H](c3cccc(Br)c3)[C@@H]2C[C@@H]1O | Dose-dependent effect |
| C1=C[C@@H]2c3ccccc3N[C@H](c3ccccc3)[C@@H]2C1 | Dose-dependent effect |
| COC(=O)C[C@@H]1[C@H](C(=O)OC)c2ccccc2N(C(C)=O)[C@@H]1c1ccccc1 | Dose-dependent effect |
| CC(=O)N1c2ccccc2[C@@H]2[C@@H](C[C@@H]3O[C@H]23)[C@H]1c1ccccc1 | Dose-dependent effect |
